Among the data in ChEMBL document CHEMBL1773019, “Antifibrotic constituents of Alnus firma on hepatic stellate cells” (Bioorg Med Chem Lett, 2011) are Activity, IC50 and inhibition values, retold here.

Active and inactive are the calls of the source. The calls are words filed in the database; no cut-off is given here.

The subject of series [1] is HSC-T6. The experiment in a line: Antiproliferative activity against rat HSC-T6 cells at 10 to 100 ug/ml after 24 to 48 hrs by BrdU incorporation assay. Format: functional, cell-based. A general note: Incorporation of labelled thymidine or its analogues reports DNA synthesis.
Series [2] deals with HSC-T6. The series is described as follows: Decrease in collagen content in rat HSC-T6 cells at 10 to 100 uM after 48 hrs by sirius red-based colorimetric assay. Format: functional, cell-based.
Series [3] is described as follows: Antifibrotic activity against rat HSC-T6 cells assessed as inhibition of proliferation after 48 hrs by BrdU incorporation assay. Format: functional, cell-based. The conditions noted are these: HSC-T6, 48 h.
In series [4] the test system is HSC-T6. The series is described as follows: Induction of cell death in rat HSC-T6 cells assessed as decrease in cell viability at 100 uM by MTT assay. Format: functional, cell-based. The conditions noted are these: TDE = time-dependent effect. (In general: Formazan colour is commonly taken as a measure of viable cells.)
The subject of series [5] is HSC-T6. The experiment in a line: Induction of cell death in rat HSC-T6 cells assessed as decrease in cell viability after 48 hrs by MTT assay. Format: functional, cell-based.
Series [6] can be described thus: Cytotoxicity against rat HSC-T6 cells assessed as decrease in LDH release. Format: cell-based. In general terms: LDH in the medium is a marker of cell lysis.
Series [7] can be described thus: Induction of apoptosis in rat HSC-T6 cells assessed as increase in caspase-3/7 activity at 10 to 100 ug/ml after 24 to 48 hrs. Format: functional.
Series [8] is described as follows: Inhibition of rat HSC-T6 cell proliferation at 100 ug/ml after 48 hrs by BrdU incorporation assay. Format: functional. The conditions noted are these: HSC-T6, 48 h.

For the molecule `C=C(C)[C@@H]1CC[C@]2(CO)CC[C@]3(C)[C@H](CC[C@@H]4[C@@]5(C)C[C@@H](O)[C@H](OC(=O)/C=C/c6ccc(O)c(O)c6)C(C)(C)[C@@H]5CC[C@]43C)[C@@H]12`, the outcome in the series on HSC-T6 [1] was Active. Moreover, the Activity entry was “Dose-dependent effect” in the series with HSC-T6 [2]; “tde” in the series with HSC-T6 [4]; “Dose-dependent effect” in the series on HSC-T6 [5]; “Non-toxic” in series [6]; 150% in series [7]. In addition, the IC50 (usually the concentration that inhibits the measured activity by half) in series [3] was found to be 23.9 µM.

Regarding `OC[C@@]1(O)CO[C@@H](OC[C@H]2O[C@@H](O[C@H](CCCCc3ccc(O)cc3)CCc3ccc(O)cc3)[C@H](O)[C@@H](O)[C@@H]2O)[C@@H]1O`, at 100 µg/mL the inhibition in series [8] was 22.7%. Also, in series [3], the half-maximal inhibitory concentration (IC50) stood at 39.1 µM.

Take `O=C(O[C@@H]1Cc2c(O)cc(O)cc2O[C@@H]1c1cc(O)c(O)c(O)c1)c1cc(O)c(O)c(O)c1` [EPIGALOCATECHIN GALLATE]: the 50% inhibitory concentration (IC50) in series [3] is 9.9 µM.

Regarding `O=C(/C=C/CCc1ccc(O)c(O)c1)CCc1ccc(O)c(O)c1` [DEHYDROHIRSUTANONOL], in the series on HSC-T6 [1], the outcome was Active. In addition, the Activity result in the series on HSC-T6 [2] is “Dose-dependent effect”; in the series with HSC-T6 [4], “tde”; in the series with HSC-T6 [5] it was “Dose-dependent effect”; in series [6] it was “Non-toxic”; in series [7], 150%. The IC50 in series [3] turned out to be 14 µM.
